Measured values as given in patent US8367677B2, “Non-glycosylated/non-glycosidic/non-peptidic small molecule PSGL-1 mimetics for the treatment of inflammatory disorders” (Revotar Biopharmaceuticals AG, priority 2004, dated 2013).

Assays:
[1] = molecular target: T1, human L-Selectin-IgG-chimera (Homo sapiens, UniProt P14151); test: Sialyl Lewis x Tyrosine Sulfate Assay (sLex TSA), L-selectin; format: binding; conditions: for inhibition at 100 µM / L-Selectin [% Inhib.]: compound at 100 μM; for inhibition at 100 µM: read-out: L-Selectin [% Inhib.]
T1 construct: fused on or other part: human IgG Fc part, a tag and dimerising handle that is captured by the goat anti-human Fc antibody on the plate
T1 sequence (P14151 39-318 limits assumed): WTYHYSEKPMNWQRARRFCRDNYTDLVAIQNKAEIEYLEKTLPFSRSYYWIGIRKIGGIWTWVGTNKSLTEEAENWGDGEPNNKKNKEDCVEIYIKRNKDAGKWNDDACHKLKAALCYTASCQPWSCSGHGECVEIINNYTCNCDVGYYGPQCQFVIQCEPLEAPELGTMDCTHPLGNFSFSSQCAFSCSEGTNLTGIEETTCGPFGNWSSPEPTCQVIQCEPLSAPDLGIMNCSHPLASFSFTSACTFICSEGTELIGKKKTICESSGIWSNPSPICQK
Protocol: (§1) Compounds of the present invention are assayed on a molecular level for their ability to inhibit the binding of P-, L-, or E-selectin chimeric molecules to sLe^x and tyrosinesulfate residues linked to a polymeric matrix as a PSGL-1 substitute.
(§2) Microtiter plates are coated overnight in carbonate buffer pH9.6 with goat anti human Fc mAB (10 μg/ml). After washing in assay buffer (25 mM 4-(2-hydroxyethyl)-1-piperazineethanesulfonic acid (HEPES), 150 mM NaCl, 1 mM CaCl2 pH7.4) and blocking (3% bovine serum albumin (BSA) in assay buffer) plates are incubated for 2 h at 37° C. with human P-Selectin-IgG-chimera (0.61 nM respectively 150 ng/mL) or human L-Selectin-IgG-chimera (0.61 nM respectively 89 ng/mL) or human E-Selectin-IgG-chimera (0.61 nM respectively 131 ng/mL). 5 μl of sLe^x-tyrosine sulfate polyacrylamide (1 mg/ml) carrying 15% sLe^x, 10% Tyrosine-sulfate and 5% biotin is complexed with 20 μl Streptavidin-Peroxidase solution (1 mg/ml) and 25 μl assay buffer without CaCl2. For use in the assay, the ligand complex is diluted 1:10000 in assay buffer and further diluted 1:1 with varying amounts of compounds in assay buffer incl. 2% DMSO. This mixture is added to the wells precoated with E- or P-selectin. After incubation for 2 h at 37° C., wells are washed for six times with in assay buffer incl. 0.005% Polyoxyethylenesorbitan monolaurate (TWEEN 20), developed for 10-15 min with 20 μl 3,3′,5,5′-tetramethylbenzidine (TMB)/H2O2 substrate solution and stopped with 20 μl […]. Bound sLe^x-Tyrosine sulfate ligand complex is determined by measuring optical density at 450 nm vs. 620 nm in a Fusion alpha-FP reader (sold from Packard Bioscience, Dreieich, Germany).

[2] = system: human P-selectin-IgG chimera; test: Flow chamber assay, cell adhesion and rolling under flow conditions, P-selectin; format: cell-based; conditions: 125 μM compound, flow shear 1 dyne/cm^2
Protocol: (§3) To assess the capability of compounds to inhibit cell binding under dynamic conditions resembling the flow in a blood vessel, flow chamber assays addressing/testing binding of HL-60 cells/various cell lines to P-selectin, L-selectin and E-selectin chimeric molecules are performed.
(§4) Cell attachment under flow conditions are determined using a parallel flow chamber system. A 35 mm polystyrene culture dish is coated for 1 hour at room temperature with coating buffer (50 mM tris-(hydroxymethyl)aminomethane buffer (Tris), 150 mM NaCl, 2 mM CaCl2; pH 7,4) containing human E- or P-selectin-IgG chimera at concentrations of 2.5 μg/ml or 10 μg/ml, respectively. After removal of the coating solution non specific binding sites are blocked for an additional hour with 1% BSA in coating buffer at room temperature. After washing with assay buffer (“Roswell Park Memorial Institute 1640” (RPMI 1640)+10 mM HEPES) the dish is fitted into a parallel plate laminar flow chamber (sold from Glycotech, Rockville, Md.) and mounted on an inverted phase-contrast microscope (sold from Olympus, Hamburg, Germany) equipped with a CCD camera (JVC) that is connected to a PC. Employing a peristaltic pump (sold from Ismatec, Wertheim-Mondfeld, Germany) the re-circulating system is equilibrated with assay buffer containing 125 μM compound or vehicle control (DMSO). Cells (1 million/ml) are added to the chamber and allowed to distribute for 2 minutes at a high flow rate. The flow rate is then decreased resulting in a calculated flow shear of 1 dyne/cm^2. Video sequences of 10 low power fields are digitally recorded after 5 minutes continuous flow. The percentage of inhibition is calculated from the mean number of cells per field that attached to the coated dish surface in the presence versus absence of compound […].

[3] = molecular target: T2, human E-Selectin-IgG-chimera (Homo sapiens, UniProt P16581); test: Sialyl Lewis x Tyrosine Sulfate Assay (sLex TSA), E-selectin; format: binding; conditions: for inhibition at 100 µM / E-Selectin [% Inhib.]: compound at 100 μM; for inhibition at 100 µM: read-out: E-Selectin [% Inhib.]
T2 construct: fused on or other part: human IgG Fc part, a tag and dimerising handle that is captured by the goat anti-human Fc antibody on the plate
T2 sequence (P16581 22-175 limits assumed): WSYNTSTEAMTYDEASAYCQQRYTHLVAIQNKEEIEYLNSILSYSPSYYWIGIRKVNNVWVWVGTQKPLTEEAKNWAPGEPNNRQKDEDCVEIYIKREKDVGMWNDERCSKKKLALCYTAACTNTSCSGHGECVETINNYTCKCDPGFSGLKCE
Protocol: as §1, §2

[4] = molecular target: T3, human P-Selectin-IgG-chimera (Homo sapiens, UniProt P16109); test: Sialyl Lewis x Tyrosine Sulfate Assay (sLex TSA), P-selectin; format: binding; conditions: for inhibition at 100 µM / P-Selectin [% Inhib.]: compound at 100 μM; for inhibition at 100 µM: read-out: P-Selectin [% Inhib.]
T3 sequence (P16109 42-771 limits assumed): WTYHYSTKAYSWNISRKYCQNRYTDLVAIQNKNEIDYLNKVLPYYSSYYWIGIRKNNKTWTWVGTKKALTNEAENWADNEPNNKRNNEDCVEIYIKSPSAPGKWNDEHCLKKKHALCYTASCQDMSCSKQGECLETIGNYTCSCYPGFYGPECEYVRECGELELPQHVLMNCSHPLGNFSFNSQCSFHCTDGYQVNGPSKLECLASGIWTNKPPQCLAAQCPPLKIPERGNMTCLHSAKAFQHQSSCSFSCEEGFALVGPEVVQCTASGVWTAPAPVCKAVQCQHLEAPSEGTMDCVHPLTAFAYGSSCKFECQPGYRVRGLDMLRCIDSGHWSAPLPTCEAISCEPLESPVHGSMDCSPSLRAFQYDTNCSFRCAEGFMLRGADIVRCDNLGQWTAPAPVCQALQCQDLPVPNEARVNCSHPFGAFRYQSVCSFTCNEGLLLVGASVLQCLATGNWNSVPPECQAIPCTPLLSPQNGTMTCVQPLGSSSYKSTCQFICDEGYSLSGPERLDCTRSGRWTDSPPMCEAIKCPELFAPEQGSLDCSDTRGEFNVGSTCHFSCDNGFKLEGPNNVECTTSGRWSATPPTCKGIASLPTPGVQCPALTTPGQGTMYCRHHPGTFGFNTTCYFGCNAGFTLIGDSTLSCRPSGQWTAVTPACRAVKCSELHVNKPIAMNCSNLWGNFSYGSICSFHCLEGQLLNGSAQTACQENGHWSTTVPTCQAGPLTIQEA
Protocol: as §1, §2

[5] = system: human E-selectin-IgG chimera; test: Flow chamber assay, cell adhesion and rolling under flow conditions, E-selectin; format: cell-based; conditions: 125 μM compound, flow shear 1 dyne/cm^2
Protocol: as §3, §4

[6] = Parallel Artificial Membrane Permeation Assay (PAMPA); format: in vitro ADME; conditions: 16 hours, room temperature; for [% flux] at pH 4.0: pH 4.0, 500 μM donor; for [% flux] at pH 7.4: pH 7.4, 500 μM donor
Protocol: The test compounds are dissolved at 10 mM in DMSO and diluted to 500 μM with PBS pH 7.4 or pH 4.0, respectively resulting in ‘donor solutions’. For use as an artificial membrane, a 1% solution of lecithin (w/v) in dodecane is prepared and sonicated. Then, 5 μl of the lecithin/dodecane mixture are carefully pipetted into each donor plate well. Immediately after the application of the artificial membrane, 150 μl of drug containing donor solutions are added to each well of the donor plate. Each well of the acceptor plate is filled with 300 μl buffer (PBS with 5% DMSO at pH 7.4 or pH 4.0, respectively) and the drug-filled donor plate is placed onto the acceptor plate, making sure the membrane is in contact with the buffer. After replacement of the lid, the assembled plates are transferred into a sealed box equipped with a moistured towel and incubated at room temperature for 16 hours. Then, the wells of the acceptor plate are analyzed with LC/MS.

| IC50 [1] | inhibition at 100 µM [1] | IC50 [3] | inhibition at 100 µM [3] | IC50 [4] | inhibition at 100 µM [4] | L-Selectin [% Inhib.] [1] | E-Selectin [% Inhib.] [3] | P-Selectin [% Inhib.] [4] | [% flux] at pH 4.0 [6] | [% flux] at pH 7.4 [6] | SMILES | P-Selectin [% Inhib.] of cell attachment [2] | E-Selectin [% Inhib.] of cell attachment [5] |
| --- | --- | --- | --- | --- | --- | --- | --- | --- | --- | --- | --- | --- | --- |
| 9.8 µM | 95% | 132 µM | 31% | 5.8 µM | 97% | – | – | – | – | – | O=C(O)Cc1ccc(-c2ccccc2NC(=O)c2cccc(-c3ccc(O)c(O)c3O)c2)s1 [Compound 48, (5-{2-[(2′,3′,4′-Trihydroxy-biphenyl-3-carbonyl)-amino]-phenyl}-thiophen-2-yl)-acetic acid] | 55% | 61% |
| 30.8 µM | 87% | 8.4 µM | 92% | 34.9 µM | 88% | – | – | – | – | – | O=C(CCc1cc(O)c(O)c(O)c1)NCc1ccc(C(=O)O)cc1 [Compound 120] | 21% | 21% |
| – | – | – | – | – | – | 77% | 29% | 73% | 12% | 12% | Cc1cccc(NC(=O)CCc2ccc(O)c(O)c2O)c1 [Compound 121] | 44% | 18% |
| 26.2 µM | 66% | 8.7 µM | 53% | 14.8 µM | 79% | – | – | – | 0% | 1% | O=C(Cc1cc(O)c(O)c(O)c1)NCc1ccc(C(=O)O)cc1 [Compound 118] | 20% | 16% |
| 14.6 µM | 81% | – | 46% | 7.6 µM | 92% | – | – | – | – | – | O=C(O)Cc1ccc(-c2ccccc2NC(=O)Cc2ccc(O)c(O)c2O)s1 [Compound 41, (5-{2-[2-(2,3,4-Trihydroxyphenyl)-acetylamino]-phenyl}-thiophen-2-yl)acetic acid] | – | 26% |
| – | – | – | – | – | – | 87% | 70% | 81% | 6% | 0% | Cc1cccc(NC(=O)Cc2ccc(O)c(O)c2O)c1 [Compound 122] | 22% | 27% |
| 3.1 µM | 96% | 3.3 µM | 99% | 2.4 µM | 97% | – | – | – | – | – | O=C(O)Cc1ccc(-c2ccccc2NC(=O)CCc2cc(O)c(O)c(O)c2)s1 [Compound 102] | 11% | 35% |
| – | – | – | – | – | – | – | – | – | 100% | 0% | O=C(Cc1ccc(O)c(O)c1O)Nc1cc(Cl)cc(Cl)c1 [Compound 124] | 23% | 28% |
| 6.2 µM | 98% | 285 µM | 51% | 3.5 µM | 97% | – | – | – | 0% | 16% | O=C(/C=C/c1ccc(O)c(O)c1O)Nc1ccc(C(=O)O)cc1 [Compound 97] | 47% | – |
| – | – | – | – | – | – | – | – | – | 27% | 0% | O=C(Cc1cc(O)c(O)c(O)c1)Nc1cccc(C(F)(F)F)c1 [Compound 123] | – | 51% |
| 24.9 µM | 99% | – | 71% | 14.4 µM | 99% | – | – | – | – | – | O=C(/C=C/c1ccc(O)c(O)c1O)Nc1cccc(C(=O)O)c1 [Compound 99] | 96% | 28% |
| – | – | – | – | – | – | 95% | 50% | 93% | – | – | Cc1oc(-c2ccc(NC(=O)Cc3cc(O)c(O)c(O)c3)cc2)cc1C(=O)O [Compound 101] | 99% | – |
